pIC50: −log10 of the molar value.
Target: T1, human TRH-DE (Homo sapiens, UniProt Q9UKU6)
T1 construct: expressed in transfected cells; host or cells: Expi 293 cells (transient expression), membrane fraction
T1 sequence (Q9UKU6 1-1069): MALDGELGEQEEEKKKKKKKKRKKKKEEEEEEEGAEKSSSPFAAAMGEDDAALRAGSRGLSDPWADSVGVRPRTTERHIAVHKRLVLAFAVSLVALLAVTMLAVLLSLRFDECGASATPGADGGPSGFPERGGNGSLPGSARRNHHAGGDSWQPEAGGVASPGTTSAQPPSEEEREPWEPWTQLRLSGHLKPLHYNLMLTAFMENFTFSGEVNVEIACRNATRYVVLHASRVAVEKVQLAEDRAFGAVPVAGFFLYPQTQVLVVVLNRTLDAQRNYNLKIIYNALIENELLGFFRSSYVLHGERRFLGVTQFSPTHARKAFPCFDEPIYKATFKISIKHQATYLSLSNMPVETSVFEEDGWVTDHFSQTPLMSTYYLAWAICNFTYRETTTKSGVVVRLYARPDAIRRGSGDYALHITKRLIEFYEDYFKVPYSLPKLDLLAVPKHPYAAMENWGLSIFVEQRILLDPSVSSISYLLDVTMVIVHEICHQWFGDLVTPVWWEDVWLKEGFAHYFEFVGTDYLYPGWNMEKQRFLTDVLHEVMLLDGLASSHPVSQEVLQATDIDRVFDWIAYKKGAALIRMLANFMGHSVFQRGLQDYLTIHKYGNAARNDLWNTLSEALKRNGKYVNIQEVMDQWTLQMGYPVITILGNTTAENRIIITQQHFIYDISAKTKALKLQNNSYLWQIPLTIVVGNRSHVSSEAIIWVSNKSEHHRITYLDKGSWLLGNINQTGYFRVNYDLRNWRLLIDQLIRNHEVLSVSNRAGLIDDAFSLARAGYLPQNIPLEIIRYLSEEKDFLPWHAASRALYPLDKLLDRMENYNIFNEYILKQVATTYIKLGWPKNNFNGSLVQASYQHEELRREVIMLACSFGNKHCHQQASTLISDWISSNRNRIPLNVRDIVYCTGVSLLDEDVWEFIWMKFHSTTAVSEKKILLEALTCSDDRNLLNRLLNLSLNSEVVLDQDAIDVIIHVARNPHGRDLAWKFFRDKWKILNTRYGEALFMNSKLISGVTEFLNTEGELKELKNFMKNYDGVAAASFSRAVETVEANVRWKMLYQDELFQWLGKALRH
Experiment: TRH-DE inhibition test (RapidFire MS measurement of product Cyclo (His-Pro))
Type: biochemical
Conditions: membrane fraction of Expi 293 cells expressing human TRH-DE; 10 μM TRH substrate; room temperature, 2 hours; 16-point concentration test
Method: The compounds described in “1. […] The enzyme inhibitory activity of each of the compounds was evaluated by measuring the amount of the product Cyclo (His-Pro) of the enzyme reaction using a RapidFire RF 365 HTMS system (manufactured by Agilent Technologies, Inc.) connected to a triple quadrupole mass spectrometer (API 4000, manufactured by SCIEX). A membrane fraction prepared from Expi 293 cells transiently expressing human TRH-DE was used as an enzyme. The membrane fraction was suspended in 4 μg/ml of a reaction buffer (50 mM sodium phosphate (pH 7.4), 25 mM NaCl, 0.01% Triton […], and 200 μM bacitracin) and mixed with the test compound at each concentration. 10 μM […]), which was a substrate, was added, and the mixture was reacted at room temperature for 2 hours. The reaction was stopped in the same amount of a solution of acetonitrile:methanol (1:1) containing 1 μM of the stable isotope Cyclo ([…]) as an internal standard, and the supernatant was collected after centrifugation. In the RapidFire RF 365 HTMS system, a portion of the supernatant was aspirated, loaded onto a Graphic Carbon column (manufactured by Agilent Technologies, Inc.) with a buffer A (water, 0.09% formic acid, 0.01% trifluoroacetic acid) and washed with ultrapure water. Next, washing was performed with acetonitrile. The contents in the column were eluted with a buffer B (80% acetonitrile, 0.09% formic acid, 0.01% trifluoroacetic acid) and injected into a mass spectrometer for analysis. […] The ESI voltage was set to 5,500 V and the temperature was set to 650° C. For the calculation of the inhibition rate, a Ratio value corrected by dividing the product amount by the internal standard amount was used. The inhibition rate (%) was calculated by % Inhibition={1-(Ratio value of sample-Ratio value of blank)/(Ratio value of control-Ratio value of blank)}×100. The IC50 value was calculated from the concentration reactivity test at 16 points.

pIC50 | Compound
7.31 | CC1CCc2ncccc2C(=O)N1C1CC2(C1)CN(S(=O)(=O)c1ccccc1F)C2 (racemic) [Example 87]
6.83 | CC1CCc2ncc(F)cc2C(=O)N1C1CC2(C1)CN(S(=O)(=O)c1ccccc1F)C2 (racemic) [Example 88]
6.54 | CC1CCc2ncc(C(F)(F)F)cc2C(=O)N1C1CC2(C1)CN(S(=O)(=O)c1ccccc1F)C2 (racemic) [Example 89]
7.92 | CC1CCc2nc(C(F)(F)F)sc2C(=O)N1C1CC2(C1)CN(S(=O)(=O)c1ccccc1F)C2 (racemic) [Example 92]
8.40 | CC1CCc2nc(C3CC3)sc2C(=O)N1C1CC2(C1)CN(S(=O)(=O)c1ccccc1F)C2 (racemic) [Example 93]
8.40 | CC1CCc2nc(C3(F)CC3)sc2C(=O)N1C1CC2(C1)CN(S(=O)(=O)c1ccccc1F)C2 (racemic) [Example 94]
7.68 | CC1CCc2sc(C(F)(F)F)nc2C(=O)N1C1CC2(C1)CN(S(=O)(=O)c1ccccc1F)C2 (racemic) [Example 98]
8.22 | CC1CCc2nc(C3CC3)oc2C(=O)N1C1CC2(C1)CN(S(=O)(=O)c1ccccc1F)C2 (racemic) [Example 102]
7.85 | CC1c2cc(C(F)(F)F)cnc2C(=O)N(C2CC3(C2)CN(S(=O)(=O)c2ccccc2F)C3)C1C (racemic) [Example 106]
7.74 | CC1CCC2CC2C(=O)N1C1CC2(C1)CN(S(=O)(=O)c1ccccc1F)C2 (racemic) [Example 107]
7.49 | CC1C=Cc2cc(C(F)(F)F)cnc2C(=O)N1C1CC2(C1)CN(S(=O)(=O)c1ccccc1F)C2 (racemic) [Example 112]
7.59 | CC1C=Cc2ncccc2C(=O)N1C1CC2(C1)CN(S(=O)(=O)c1ccccc1F)C2 (racemic) [Example 113]
7.21 | CC1C=Cc2ncc(F)cc2C(=O)N1C1CC2(C1)CN(S(=O)(=O)c1ccccc1F)C2 (racemic) [Example 114]
7.08 | CC1C=Cc2ncc(C(F)(F)F)cc2C(=O)N1C1CC2(C1)CN(S(=O)(=O)c1ccccc1F)C2 (racemic) [Example 115]
7.60 | CC1C=Cc2nc(C(F)(F)F)sc2C(=O)N1C1CC2(C1)CN(S(=O)(=O)c1ccccc1F)C2 (racemic) [Example 118]
7.89 | CC1C=Cc2nc(C3CC3)sc2C(=O)N1C1CC2(C1)CN(S(=O)(=O)c1ccccc1F)C2 (racemic) [Example 119]
7.96 | CC1C=Cc2nc(C3(F)CC3)sc2C(=O)N1C1CC2(C1)CN(S(=O)(=O)c1ccccc1F)C2 (racemic) [Example 120]
7.68 | CC1C=Cc2nc(C3CC3)oc2C(=O)N1C1CC2(C1)CN(S(=O)(=O)c1ccccc1F)C2 (racemic) [Example 129]
7.49 | CC1C=Cc2c(noc2C2CC2)C(=O)N1C1CC2(C1)CN(S(=O)(=O)c1ccccc1F)C2 (racemic) [Example 131]
7.72 | Cc1nc2c(s1)C(=O)N(C1CC3(C1)CN(S(=O)(=O)c1ccccc1F)C3)C(C)CO2 (racemic) [Example 174]
7.74 | CCc1nc2c(s1)C(=O)N(C1CC3(C1)CN(S(=O)(=O)c1ccccc1F)C3)C(C)CO2 (racemic) [Example 177]
8.15 | CC1COc2nc(C3CC3)sc2C(=O)N1C1CC2(C1)CN(S(=O)(=O)c1ccccc1F)C2 (racemic) [Example 179]
6.95 | COc1ccc2c(n1)CCC(C)N(C1CC3(C1)CN(S(=O)(=O)c1ccccc1F)C3)C2=O (racemic) [Example 249, 6-[2-(2-fluorophenyl)sulfonyl-2-azaspiro[3.3]heptan-6-yl]-2-methoxy-7-methyl-8,9-dihydro-7H-pyrido[3,2-c]azepin-5-one]

pIC50 | Compound
6.82 | CC1CSc2nc(C(F)(F)F)ccc2C(=O)N1C1CC2(C1)CN(S(=O)(=O)c1ccccc1F)C2 (racemic) [Example 259, 4-[2-(2-fluorophenyl)sulfonyl-2-azaspiro[3.3]heptan-6-yl]-3-methyl-8-(trifluoromethyl)-2,3-dihydropyrido[3,2-f][1,4]thiazepin-5-one]
6.18 | CC1c2ccccc2C(=O)N1C1CC2(C1)CN(S(=O)(=O)c1ccccc1)C2 (racemic) [Example 267]
6.97 | CCC1c2ccccc2C(=O)N1C1CC2(C1)CN(S(=O)(=O)c1ccccc1)C2 (racemic) [Example 268]
6.87 | CC1c2cc(F)ccc2C(=O)N1C1CC2(C1)CN(S(=O)(=O)c1ccccc1F)C2 (racemic) [Example 269]
6.72 | CC1c2ccc(F)cc2C(=O)N1C1CC2(C1)CN(S(=O)(=O)c1ccccc1F)C2 (racemic) [Example 270]
7.62 | CCC1c2ccccc2C(=O)N1C1CC2(C1)CN(S(=O)(=O)c1ccccc1F)C2 (racemic) [Example 271]
7.00 | Cc1ccc(F)c(S(=O)(=O)N2CC3(CC(N4C(=O)c5ccccc5C4C)C3)C2)c1 (racemic) [Example 272]
7.20 | CCC1c2ccccc2C(=O)N1C1CC2(C1)CN(S(=O)(=O)c1cc(C)ccc1F)C2 (racemic) [Example 273]
6.82 | CCC1c2ccccc2C(=O)N1C1CC2(C1)CN(S(=O)(=O)c1cc(OC)ccc1F)C2 (racemic) [Example 274]
7.13 | CC1(O)c2cc(F)ccc2C(=O)N1C1CC2(C1)CN(S(=O)(=O)c1ccccc1F)C2 (racemic) [Example 276]
6.99 | CC1(O)c2ccc(F)cc2C(=O)N1C1CC2(C1)CN(S(=O)(=O)c1ccccc1F)C2 (racemic) [Example 277]
6.84 | CC1(O)c2cccnc2C(=O)N1C1CC2(C1)CN(S(=O)(=O)c1ccccc1F)C2 (racemic) [Example 278]
6.95 | CC1(O)c2cc(F)cnc2C(=O)N1C1CC2(C1)CN(S(=O)(=O)c1ccccc1F)C2 (racemic) [Example 279]
7.05 | Cc1cnc2c(c1)C(C)(O)N(C1CC3(C1)CN(S(=O)(=O)c1ccccc1F)C3)C2=O (racemic) [Example 280]
6.92 | COc1ccc2c(n1)C(=O)N(C1CC3(C1)CN(S(=O)(=O)c1ccccc1F)C3)C2(C)O (racemic) [Example 281]
6.91 | CC1(O)c2cnccc2C(=O)N1C1CC2(C1)CN(S(=O)(=O)c1ccccc1F)C2 (racemic) [Example 282]
6.27 | CC1(O)c2ccccc2C(=O)N1C1CC2(C1)CN(S(=O)(=O)c1ccccc1)C2 (racemic) [Example 284]
6.02 | CCC1(O)c2ccccc2C(=O)N1C1CC2(C1)CN(S(=O)(=O)c1ccccc1)C2 (racemic) [Example 285]
6.67 | CCC1(O)c2ccccc2C(=O)N1C1CC2(C1)CN(S(=O)(=O)c1ccccc1F)C2 (racemic) [Example 286]
7.05 | Cc1ccc(F)c(S(=O)(=O)N2CC3(CC(N4C(=O)c5ccccc5C4(C)O)C3)C2)c1 (racemic) [Example 287]
6.47 | CCC1(O)c2ccccc2C(=O)N1C1CC2(C1)CN(S(=O)(=O)c1cc(C)ccc1F)C2 (racemic) [Example 288]
6.47 | CCC1(O)c2ccccc2C(=O)N1C1CC2(C1)CN(S(=O)(=O)c1cc(OC)ccc1F)C2 (racemic) [Example 289]
6.67 | CC1c2cccnc2C(=O)N1C1CC2(C1)CN(S(=O)(=O)c1ccccc1F)C2 (racemic) [Example 291]

— US20260132127A1, “NOVEL SPIRO COMPOUND” (MITSUBISHI TANABE PHARMA CORPORATION, priority 2021, published 2026)
